Converted amounts (≈) assume the structure as drawn. One block for each compound: values may come before it. The source made the active and inactive calls. No cut-off for these calls is given here.
Columns and labels:
[1] = Tmax in CD1 mouse at 1 mg/kg, po after 24 hrs by HPLC-MS/MS analysis; type: ADME, organism-based; details: in vivo
[2] = target: T1, Tumor necrosis factor (Homo sapiens, UniProt P01375)
Description: Inhibition of probe-5 binding to human TNFalpha (77 to 233 residues) at 1 nM by fluorescence polarization assay

[3] = Cmax in CD1 mouse at 1 mg/kg, po after 24 hrs by HPLC-MS/MS analysis; type: ADME, organism-based; design: route oral, dose 1 mg/kg, time 24 hrs; details: in vivo
[4] = Blood clearance in CD1 mouse at 1 mg/kg, iv after 24 hrs by HPLC-MS/MS analysis; type: ADME, organism-based
[5] = Half life in CD1 mouse at 1 mg/kg, iv after 24 hrs by HPLC-MS/MS analysis; type: ADME, organism-based; details: in vivo
[6] = Unbound clearance in CD1 mouse at 1 mg/kg, iv after 24 hrs by HPLC-MS/MS analysis; type: ADME, organism-based; details: in vivo
[7] = target: T1, Tumor necrosis factor; remark: listed apart in the source
Description: Binding affinity to biotinylated human TNFalpha trimer (77 to 233 residues) expressed in Escherichia coli BL21(DE3) assessed as binding half life by SPR analysis

[8] = Intrinsic clearance in mouse liver microsomes; type: ADME, Microsome; details: read-out: CLH (converted)
[9] = Volume of distribution at steady state in CD1 mouse at 1 mg/kg, iv after 24 hrs by HPLC-MS/MS analysis; type: ADME, organism-based; details: in vivo, read-out: Vdss
[10] = target: T1, Tumor necrosis factor; remark: listed apart in the source
Description: Binding affinity to biotinylated human TNFalpha trimer (77 to 233 residues) expressed in Escherichia coli BL21(DE3) by SPR analysis

[11] = Fraction unbound in plasma (unknown origin); type: ADME, cell-free
[12] = Oral bioavailability in CD1 mouse at 1 mg/kg after 24 hrs by HPLC-MS/MS analysis; type: ADME, organism-based; details: in vivo
[13] = AUC in CD1 mouse at 1 mg/kg, po after 24 hrs by HPLC-MS/MS analysis; type: ADME, organism-based; design: route oral, time 24 hrs, dose 1 mg/kg; details: in vivo
[14] = Solubility in phosphate buffer at pH 7.4; type: physicochemical
[15] = Intrinsic clearance in human liver microsomes; type: ADME, Microsome; details: read-out: CLH (converted)
[16] = Unbound AUC in CD1 mouse at 1 mg/kg, po after 24 hrs by HPLC-MS/MS analysis; type: ADME, organism-based; details: in vivo
[17] = Half life in CD1 mouse at 1 mg/kg, po after 24 hrs by HPLC-MS/MS analysis; type: ADME, organism-based; details: in vivo
[18] = AUC in CD1 mouse at 1 mg/kg, iv after 24 hrs by HPLC-MS/MS analysis; type: ADME, organism-based; design: route intravenous, dose 1 mg/kg, time 24 hrs; details: in vivo
[19] = target: T1, Tumor necrosis factor; details: dose 1.0 nM, TDE = time-dependent effect
[20] = AUC (0 to 12 hrs) in DBA/J mouse model of CFA and glucose-6-phosphate isomerase-induced arthritis model at 100 mg/kg, po BID beginning 1 hr prior to GPI immunization and measured up to day 17 after GPI immunization by HPLC-MS/MS analysis; type: ADME, organism-based; design: route oral, dose 100 mg/kg, time 17 day; details: in vivo
[21] = Drug uptake in DBA/J mouse model of CFA and glucose-6-phosphate isomerase-induced arthritis model at 10 to 100 mg/kg, po BID beginning 1 hr prior to GPI immunization and measured up to day 17 after GPI immunization by HPLC-MS/MS analysis; type: ADME, organism-based; details: in vivo, 408 h, dose 10-100 mg/kg, time 17 day
[22] = (§1) Selectivity index, ratio of Cmax in DBA/J mouse model of CFA and glucose-6-phosphate isomerase-induced arthritis model at 30 mg/kg, po BID beginning 1 hr prior to GPI immunization and measured up to day 17 after GPI immunization by HPLC-MS/MS analysis to EC50 for inhibition of TNFalpha in mouse L929 cells exposed to compound incubated for 1 hr with mouse TNFalpha by luminescence based assay; details: time 17 day
[23] = as §1, with “100” for “30”
[24] = AUC (0 to 12 hrs) in DBA/J mouse model of CFA and glucose-6-phosphate isomerase-induced arthritis model at 10 mg/kg, po BID beginning 1 hr prior to GPI immunization and measured up to day 17 after GPI immunization by HPLC-MS/MS analysis; type: ADME, organism-based; design: route oral, time 17 day, dose 10 mg/kg; details: in vivo
[25] = test system: Mus musculus; test: Antiarthritic activity in DBA/J mouse model of CFA and glucose-6-phosphate isomerase-induced arthritis model assessed as inhibition of paw swelling at 30 to 100 mg/kg, po BID beginning 1 hr prior to GPI immunization and measured on days 13, 15, and 17 after GPI immunization; type: functional, organism-based; details: dose 30-100 mg/kg, time 13-17 day
[26] = Cmax in DBA/J mouse model of CFA and glucose-6-phosphate isomerase-induced arthritis model at 30 mg/kg, po BID beginning 1 hr prior to GPI immunization and measured up to day 17 after GPI immunization by HPLC-MS/MS analysis; type: ADME, organism-based; design: route oral, time 17 day, dose 30 mg/kg; details: in vivo
[27] = Cmax in DBA/J mouse model of CFA and glucose-6-phosphate isomerase-induced arthritis model at 100 mg/kg, po BID beginning 1 hr prior to GPI immunization and measured up to day 17 after GPI immunization by HPLC-MS/MS analysis; type: ADME, organism-based; design: route oral, time 17 day, dose 100 mg/kg; details: in vivo
[28] = Cmax in DBA/J mouse model of CFA and glucose-6-phosphate isomerase-induced arthritis model at 10 mg/kg, po BID beginning 1 hr prior to GPI immunization and measured up to day 17 after GPI immunization by HPLC-MS/MS analysis; type: ADME, organism-based; design: route oral, time 17 day, dose 10 mg/kg; details: in vivo
[29] = AUC (0 to 12 hrs) in DBA/J mouse model of CFA and glucose-6-phosphate isomerase-induced arthritis model at 30 mg/kg, po BID beginning 1 hr prior to GPI immunization and measured up to day 17 after GPI immunization by HPLC-MS/MS analysis; type: ADME, organism-based; design: route oral, time 17 day, dose 30 mg/kg; details: in vivo
[30] = as §1, with “10” for “30”; details: time 17 day
[31] = target: T1, Tumor necrosis factor; remark: listed apart in the source
Description: Induction of stabilization of biotinylated human TNFalpha trimer (77 to 233 residues) expressed in Escherichia coli BL21(DE3) assessed as change in melting temperature

T1 sequence (P01375 whole entry): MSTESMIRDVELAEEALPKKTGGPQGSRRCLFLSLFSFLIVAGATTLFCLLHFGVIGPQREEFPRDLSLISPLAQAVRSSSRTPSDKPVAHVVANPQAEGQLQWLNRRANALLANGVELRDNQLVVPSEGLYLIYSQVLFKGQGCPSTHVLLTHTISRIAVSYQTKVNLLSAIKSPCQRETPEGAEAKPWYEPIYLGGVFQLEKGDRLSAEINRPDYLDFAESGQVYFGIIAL

Tmax [1]: 1.8 h | Cmax [3]: 200 ng/mL | clearance [4]: 6.15 mL/min/kg | half-life [5]: 4.4 h | CL free [6]: 2100 mL/min/kg | CLint scaled [8]: 1680 mL/min/kg | Vd [9]: 2.12 L/kg | fraction unbound [11]: 0.00293 | bioavailability [12]: 75.4% | AUC at 24 h [13]: 2340 ng·h/mL | solubility [14]: 1.2 µM (≈ 0.662 µg/mL) | CLint scaled [15]: 2280 mL/min/kg | fAUC [16]: 6.86 ng·h/mL | half-life [17]: 4.7 h | AUC at 24 h [18]: 3110 ng·h/mL
Structure (SMILES): C[C@@H]1CN(c2ncc(-c3ccc4c(c3)N(Cc3ccccc3OC(F)F)C(C)(C)C4=O)cn2)CCN1C(=O)CO
IC50 [2]: 189 nM | T1/2 [7]: 42.8 h | Kd [10]: 1.3 nM

Structure (SMILES): O=C(NCCOCCOCCOCc1ccc(-c2cccc3ccncc23)c(OCCc2ccc(-c3cccc4ccncc34)cc2)c1)c1ccc2c(c1)C(=O)OC21c2cc(F)c(O)cc2Oc2cc(O)c(F)cc21
Activity [19]: Tde

Tmax [1]: 1 h | AUC at 408 h [20]: 46300 ng·h/mL | Drug uptake [21]: Dose-dependent effect | Cmax [3]: 81.7 ng/mL | AUC at 408 h [24]: 3830 ng·h/mL | Cmax [26]: 2980 ng/mL | clearance [4]: 32 mL/min/kg | half-life [5]: 1.1 h | CL free [6]: 198 mL/min/kg | Cmax [27]: 6190 ng/mL | Vd [9]: 2.12 L/kg | Cmax [28]: 767 ng/mL | bioavailability [12]: 50.4% | AUC at 408 h [29]: 10200 ng·h/mL | AUC at 24 h [13]: 263 ng·h/mL | fAUC [16]: 42.4 ng·h/mL | half-life [17]: 1.6 h | AUC at 24 h [18]: 523 ng·h/mL
Structure (SMILES): CC1(C)C(=O)c2ccc(-c3cnc(N4CCN5C(=O)NC[C@@H]5C4)nc3)cc2N1Cc1cccnc1C#N
IC50 [2]: 71 nM | Ratio [22]: 8.3 | Ratio [23]: 17 | Activity [25]: Active | T1/2 [7]: 0.9 h | Kd [10]: 6.8 nM | Ratio [30]: 2.1

Structure (SMILES): c1ccc(Cn2cnc3ccccc32)cc1
IC50 [2]: 204000 nM | Kd [10]: 300000 nM

Structure (SMILES): c1ccc(-c2cccc3ccncc23)c(OCCc2ccc(-c3cccc4ccncc34)cc2)c1
ΔTm [31]: 7 °C | IC50 [2]: 1350 nM | Kd [10]: 74 nM

Structure (SMILES): CN1CCN(Cc2ccc(-c3c[nH]c4ccncc34)c(OCCc3ccc(-c4cccc5ccncc45)cc3)c2)CC1
ΔTm [31]: > 15 °C | IC50 [2]: 29 nM | Kd [10]: 2.4 nM

Structure (SMILES): c1ccc(-c2cccc3ccncc23)cc1
IC50 [2]: 25300 nM | Kd [10]: 60000 nM

Tmax [1]: 1 h | Cmax [3]: 16.7 ng/mL | clearance [4]: 146 mL/min/kg | half-life [5]: 1.4 h | CL free [6]: 955 mL/min/kg | Vd [9]: 17.3 L/kg | fraction unbound [11]: 0.137 | bioavailability [12]: 50.8% | AUC at 24 h [13]: 62.7 ng·h/mL | solubility [14]: 48.4 µM (≈ 24.8 µg/mL) | fAUC [16]: 9.6 ng·h/mL | half-life [17]: 2 h | AUC at 24 h [18]: 124 ng·h/mL
Structure (SMILES): C[C@@H]1CN(c2ncc(-c3ccc4c(c3)N(Cc3cccnc3C#N)C(C)(C)C4=O)cn2)CCN1C(=O)CO
IC50 [2]: 163 nM | T1/2 [7]: 62.3 h | Kd [10]: 7.3 nM

Structure (SMILES): N#CCc1ccc(-c2cccc3ccncc23)cc1
ΔTm [31]: 4 °C | IC50 [2]: 7960 nM | Kd [10]: 2700 nM

Structure (SMILES): Cc1ccc(Cn2cnc3ccccc32)c(C)c1
Kd [10]: 106000 nM

Structure (SMILES): Cc1nc2ccccc2n1Cc1ccccc1
Kd [10]: 325000 nM

— ChEMBL document CHEMBL4765484, “Development of Orally Efficacious Allosteric Inhibitors of TNFα via Fragment-Based Drug Design” (J Med Chem, 2021)
